Test results reported in US9060515B2, “Heterocyclic urea compounds” (BIOTA EUROPE LTD, priority 2011, dated 2015).
In brackets after ≈: the same amount, converted by molar mass.

What was measured:
S. aureus (ATCC 29213) = experiment: Antibacterial susceptibility testing (MIC, broth microdilution or agar dilution), S. aureus; type: cell-based; details: Staphylococcus aureus, ATCC29213; read-out: S. aureus (ATCC 29213) minimal inhibitory concentration (MIC)
Procedure: (§1) Compounds of the invention were tested for antimicrobial activity by susceptibility testing in liquid or on solid media. MICs for compounds against each strain were determined by the broth microdilution or agar dilution method according to the guidelines of the Clinical Laboratories and Standards Institute, formerly the National Committee for Clinical Laboratory Standards (Clinical Laboratories and Standards Institute. Methods for Dilution Antimicrobial Susceptibility Tests for Bacteria That Grow Aerobically; Approved Standard—Seventh Edition. Document M7-A7. CLSI, Wayne, Pa., 2006; Clinical Laboratories and Standards Institute. The Gram positive bacterial strains tested include S. aureus (Staphylococcus aureus (Isolate ID ATCC 29213)), E. faecalis (Enterococcus faecalis (Isolate ID ATCC 29212)) and S. pyogenes (Streptococcus pyogenes (Isolate ID ATCC 51339)). The Gram negative bacterial strains tested include H. influenzae (Haemophilus influenzae (Isolate ID ATCC 49247)).

S. pyogenes (ATCC 51339) = experiment: Antibacterial susceptibility testing (MIC, broth microdilution or agar dilution), S. pyogenes; type: cell-based; details: Streptococcus pyogenes, ATCC51339; read-out: S. pyogenes (ATCC 51339) minimal inhibitory concentration (MIC)
Procedure: as §1

| SMILES | MIC (S. aureus (ATCC 29213)) | MIC (S. pyogenes (ATCC 51339)) |
| --- | --- | --- |
| CCNC(=O)Nc1cc(Nc2ccc(C(=O)OCC)cc2)c(C(=O)Nc2cccnc2)cn1 [Compound 15, Ethyl 4-(2-(3-ethylureido)-5-(pyridin-3-ylcarbamoyl)pyridin-4-ylamino)benzoate] | ≤ 1 µg/mL | ≤ 1 µg/mL |
| CCNC(=O)Nc1cc(Nc2c(C)noc2C)c(C(=O)Nc2cccnc2)cn1 [Compound 115, 4-(3,5-dimethylisoxazol-4-ylamino)-6-(3-ethylureido)-N-(pyridin-3-yl)nicotinamide] | 32 µg/mL (≈ 80.9 µM) | 8 µg/mL (≈ 20.2 µM) |
| CCNC(=O)Nc1cc(Nc2cccc(C(=O)OC)c2)c(C(=O)Nc2cccnc2)cn1 [Compound 97, methyl 3-(2-(3-ethylureido)-5-(pyridin-3-ylcarbamoyl)pyridin-4-ylamino)benzoate] | 2 µg/mL (≈ 4.6 µM) | 32 µg/mL (≈ 73.7 µM) |
| CCNC(=O)Nc1cc(Nc2ccccc2)c(C(=O)Nc2cccc(C(F)(F)F)c2)cn1 [Compound 48, 6-(3-ethylureido)-4-(phenylamino)-N-(3-(trifluoromethyl)phenyl)nicotinamide] | ≤ 1 µg/mL | 8 µg/mL (≈ 18 µM) |
| CCNC(=O)Nc1cc(Nc2ccccc2)c(C(N)=O)cn1 [Compound 61, 6-(3-Ethylureido)-4-(phenylamino)nicotinamide] | 32 µg/mL (≈ 107 µM) | 16 µg/mL (≈ 53.5 µM) |
| CCNC(=O)Nc1cc(Nc2ccc(OC)cc2)c(C(=O)Nc2cccnc2)cn1 [Compound 14, 6-(3-Ethylureido)-4-(4-methaxyphenylamino)-N-(pyridin-3-yl)nicotinamide] | 4 µg/mL (≈ 9.84 µM) | 2 µg/mL (≈ 4.92 µM) |
| CCNC(=O)Nc1cc(Nc2ccccc2)c(C(=O)Nc2cnn(C)c2)cn1 [Compound 65, 6-(3-ethylureido)-N-(1-methyl-1H-pyrazol-4-yl)-4-(phenylamino)nicotinamide] | 2 µg/mL (≈ 5.27 µM) | ≤ 1 µg/mL |
| CCNC(=O)Nc1cc(Nc2ccc(C(=O)OC)cc2)c(C(=O)Nc2cccnc2)cn1 [Compound 96, methyl 4-(2-(3-ethylureido)-5-(pyridin-3-ylcarbamoyl)pyridin-4-ylamino)benzoate] | ≤ 1 µg/mL | ≤ 1 µg/mL |
| CCNC(=O)Nc1cc(Nc2ccccc2)c(C(=O)NCC)cn1 [Compound 8, N-Ethyl-6-(3-ethylureido)-4-(phenylamino)nicotinamide] | 32 µg/mL (≈ 97.7 µM) | 16 µg/mL (≈ 48.9 µM) |
| CCNC(=O)Nc1cc(Nc2ccccc2OC)c(C(=O)Nc2cccnc2)cn1 [Compound 109, 6-(3-ethylureido)-4-(2-methoxyphenylamino)-N-(pyridin-3-yl)nicotinamide] | 2 µg/mL (≈ 4.92 µM) | ≤ 1 µg/mL |
| CCNC(=O)Nc1cc(Nc2ccccc2)c(C(=O)Nc2cc(C)cc(F)c2)cn1 [Compound 93, 6-(3-ethylureido)-N-(3-fluoro-5-methylphenyl)-4-(phenylamino)nicotinamide] | ≤ 1 µg/mL | 2 µg/mL (≈ 4.91 µM) |
| CCNC(=O)Nc1cc(Nc2ccccc2)c(C(=O)Nc2ccc(Oc3ccc(F)cc3)nc2)cn1 [Compound 82] | 2 µg/mL (≈ 4.11 µM) | 8 µg/mL (≈ 16.4 µM) |
| CCNC(=O)Nc1cc(Nc2ccccc2)c(C(=O)Nc2ccc(N3CCC(O)CC3)nc2)cn1 [Compound 100, 6-(3-ethylureido)-N-(6-(4-hydroxypiperidin-1-yl)pyridin-3-yl)-4-(phenylamino)nicotinamide] | 2 µg/mL (≈ 4.21 µM) | ≤ 1 µg/mL |
| CCNC(=O)Nc1cc(Nc2ccccc2)c(C(=O)Nc2cc(F)cc(F)c2)cn1 [Compound 66, N-(3,5-difluorophenyl)-6-(3-ethylureido)-4-(phenylamino)nicotinamide] | ≤ 1 µg/mL | 4 µg/mL (≈ 9.72 µM) |
| CCNC(=O)Nc1cc(Nc2ccn(C)n2)c(C(=O)Nc2cccnc2)cn1 [Compound 116, 6-(3-ethylureido)-4-(1-methyl-1H-pyrazol-3-ylamino)-N-(pyridin-3-yl)nicotinamide] | 4 µg/mL (≈ 10.5 µM) | ≤ 1 µg/mL |
| CCNC(=O)Nc1cc(Nc2ccccc2)c(C(=O)NCc2ccccn2)cn1 [Compound 52, 6-(3-ethylureido)-4-(phenylamino)-N-(pyridin-2-ylmethyl)nicotinamide] | 32 µg/mL (≈ 82 µM) | 8 µg/mL (≈ 20.5 µM) |
| CCNC(=O)Nc1cc(Nc2cccc(OC)c2)c(C(=O)Nc2cccnc2)cn1 [Compound 111, 6-(3-ethylureido)-4-(3-methoxyphenylamino)-N-(pyridin-3-yl)nicotinamide] | ≤ 1 µg/mL | ≤ 1 µg/mL |
| CCNC(=O)Nc1cc(Nc2cnn(C)c2)c(C(=O)Nc2cccnc2)cn1 [Compound 113, 6-(3-ethylureido)-4-(1-methyl-1H-pyrazol-4-ylamino)-N-(pyridin-3-yl)nicotinamide] | 32 µg/mL (≈ 84.1 µM) | 4 µg/mL (≈ 10.5 µM) |

Continued, values first:

| MIC (S. aureus (ATCC 29213)) | MIC (S. pyogenes (ATCC 51339)) | SMILES |
| --- | --- | --- |
| 2 µg/mL (≈ 4.48 µM) | ≤ 1 µg/mL | CCNC(=O)Nc1cc(Nc2ccccc2)c(C(=O)Nc2ccc(CCC(N)=O)cc2)cn1 [Compound 118, N-(4-(3-amino-3-oxopropyl)phenyl)-6-(3-ethylureido)-4-(phenylamino)nicotinamide] |
| ≤ 1 µg/mL | ≤ 1 µg/mL | CCNC(=O)Nc1cc(Nc2ccccc2)c(C(=O)Nc2ccc(C)nc2)cn1 [Compound 81, 6-(3-ethylureido)-N-(6-methylpyridin-3-yl)-4-(phenylamino)nicotinamide] |
| 8 µg/mL (≈ 19.7 µM) | ≤ 1 µg/mL | CCNC(=O)Nc1cc(Nc2ccc(CO)cc2)c(C(=O)Nc2cccnc2)cn1 [Compound 128, 6-(3-ethylureido)-4-(4-(hydroxymethyl)phenylamino)-N-(pyridin-3-yl)nicotinamide] |
| ≤ 1 µg/mL | 4 µg/mL (≈ 9.72 µM) | CCNC(=O)Nc1cc(Nc2ccccc2)c(C(=O)Nc2ccc(F)c(F)c2)cn1 [Compound 69, N-(3,4-difluorophenyl)-6-(3-ethylureido)-4-(phenylamino)nicotinamide] |
| 2 µg/mL (≈ 4.09 µM) | ≤ 1 µg/mL | CCNC(=O)Nc1cc(Nc2ccccc2)c(C(=O)Nc2ccc(CC(C)(C)C(=O)OC)cc2)cn1 [Compound 129] |
| ≤ 1 µg/mL | ≤ 1 µg/mL | CCNC(=O)Nc1cc(Nc2ccccc2)c(C(=O)Nc2ccc(N(C)C)nc2)cn1 [Compound 98, N-(6-(dimethylamino)pyridin-3-yl)-6-(3-ethylureido)-4-(phenylamino)nicotinamide] |
| ≤ 1 µg/mL | ≤ 1 µg/mL | CCNC(=O)Nc1cc(Nc2ccccc2)c(C(=O)Nc2ccc(CCC(C)=O)cc2)cn1 [Compound 122, 6-(3-Ethylureido)-N-(4-(3-oxobutyl)phenyl)-4-(phenylamino)nicotinamide] |
| 2 µg/mL (≈ 4.61 µM) | ≤ 1 µg/mL | CCNC(=O)Nc1cc(Nc2ccccc2)c(C(=O)Nc2ccc(NC(C)C)nc2)cn1 [Compound 95, 6-(3-ethylureido)-N-(6-(isopropylamino)pyridin-3-yl)-4-(phenylamino)nicotinamide] |
| 4 µg/mL (≈ 8.65 µM) | 4 µg/mL (≈ 8.65 µM) | CCNC(=O)Nc1cc(Nc2ccc(CC(=O)OCC)cc2)c(C(=O)Nc2cccnc2)cn1 [Compound 110, ethyl 2-(4-(2-(3-ethylureido)-5-(pyridin-3-ylcarbamoyl)pyridin-4-ylamino)phenyl)acetate] |
| ≤ 1 µg/mL | ≤ 1 µg/mL | CCNC(=O)Nc1cc(Nc2ccccc2)c(C(=O)Nc2cc(C(=O)OC)n(C)c2)cn1 [Compound 86, methyl 4-(6-(3-ethylureido)-4-(phenylamino)nicotinamido)-1-methyl-1H-pyrrole-2-carboxylate] |
| ≤ 1 µg/mL | ≤ 1 µg/mL | CCNC(=O)Nc1cc(Nc2ccccc2)c(C(=O)Nc2ccc(CCC(=O)N(C)C)cc2)cn1 [Compound 119, N-(4-(3-(dimethylamino)-3-oxopropyl)phenyl)-6-(3-ethylureido)-4-(phenylamino)nicotinamide] |
| 2 µg/mL (≈ 4.34 µM) | ≤ 1 µg/mL | CCNC(=O)Nc1cc(Nc2ccccc2)c(C(=O)Nc2ccc(CCC(=O)NC)cc2)cn1 [Compound 120, 6-(3-ethylureido)-N-(4-(3-(methylamino)-3-oxopropyl)phenyl)-4-(phenylamino)nicotinamide] |
| 4 µg/mL (≈ 9.87 µM) | 8 µg/mL (≈ 19.7 µM) | CCNC(=O)Nc1cc(Nc2ccccc2)c(C(=O)Nc2cccc(OC)c2)cn1 [Compound 32, 6-(3-ethylureido)-N-(3-methoxyphenyl)-4-(phenylamino)nicotinamide] |
| 2 µg/mL (≈ 4.81 µM) | ≤ 1 µg/mL | CCNC(=O)Nc1cc(Nc2ccccc2)c(C(=O)Nc2ccc3nccn3c2)cn1 [Compound 76, 6-(3-ethylureido)-N-(imidazo[1,2-a]pyridin-6-yl)-4-(phenylamino)nicotinamide] |
| 4 µg/mL (≈ 9.02 µM) | 32 µg/mL (≈ 72.2 µM) | CCNC(=O)Nc1cc(Nc2ccccc2)c(C(=O)Nc2ccc(C(F)(F)F)cc2)cn1 [Compound 47, 6-(3-ethylureido)-4-(phenylamino)-N-(4-(trifluoromethyl)phenyl)nicotinamide] |
| ≤ 1 µg/mL | ≤ 1 µg/mL | CCNC(=O)Nc1cc(Nc2ccccc2)c(C(=O)Nc2cncc(C)c2)cn1 [Compound 91, 6-(3-ethylureido)-N-(5-methylpyridin-3-yl)-4-(phenylamino)nicotinamide] |
| 4 µg/mL (≈ 9.76 µM) | 32 µg/mL (≈ 78.1 µM) | CCNC(=O)Nc1cc(Nc2ccccc2)c(C(=O)Nc2ccc(Cl)cc2)cn1 [Compound 34, N-(4-chlorophenyl)-6-(3-ethylureido)-4-(phenylamino)nicotinamide] |
| 16 µg/mL (≈ 39.4 µM) | ≤ 1 µg/mL | CCNC(=O)Nc1cc(Nc2ccccc2)c(C(=O)Nc2ccc(=O)n(C)c2)cn1 [Compound 99, 6-(3-ethylureido)-N-(1-methyl-6-oxo-1,6-dihydropyridin-3-yl)-4-(phenylamino)nicotinamide] |
| ≤ 1 µg/mL | ≤ 1 µg/mL | CCNC(=O)Nc1cc(Nc2ccccc2)c(C(=O)Nc2ccc(CCCO)cc2)cn1 [Compound 117, 6-(3-ethylureido)-N-(4-(3-hydroxypropyl)phenyl)-4-(phenylamino)nicotinamide] |
